Experimental data from patent publication US8513182B2, “Natural polypeptides for oral health care” (priority 2007, dated 2013).
Like-named read-outs stand apart in the source and are kept apart here. Ends that are not written are not given here.

Assays:
oral bacteria = details: bacteria grown in a broth media, in-vitro; cited from earlier work
bacteria adhering to SHA = details: SHA treated with drug, washed, placed in a culture of bacteria; cited from earlier work
Streptococcus mutans [1] = experiment: disk diffusion assay on confluent S. mutans culture; type: cell-based; details: for antibacterial activity (zone of inhibition) against S. mutans: FIG. 4, lactoferrin, statherin and fusion peptides on disk
Source text: In all panels the circle is a filter paper disk impregnated with different agents (PBS=phosphate buffered saline which is a control); LF “R”=the 11 mer of lactoferrin with arginine (R) in amino acid position 29; LF “K” the 11 mer of lactoferrin with lysine (K) in amino acid position 29. The disk containing a standard concentration of one of the agents is placed over a confluent culture of Streptococcus mutans.
In all panels the circle is a disk impregnated with different agents. The disk is placed over a confluent culture of Streptococcus mutans. […] Panel top left: Lactoferrin (timer) where the lysine is present. […] Middle and top right panel are the two statherin peptides, a 6 mer and a 15 mer. […] Panel bottom left: lactoferrin 11 mer noted as LF fused to the Statherin 6 mer. […] Panel bottom right: Lactoferrin 11 mer noted as LF fused to Statherin 15 mer. […] The two panels on the bottom show the level of interference when the LF is added to the two Statherins. The activity of the LF when the smaller Statherin peptide is fused to it is greater as compared to when the larger peptide is fused to the LF.
The first was a disk diffusion screening assay we developed in our laboratory. In that assay we grew an overnight culture of S. mutans in a broth consisting of trypticase soy and 20% sucrose added. Cells were grown overnight and then streaked to confluence on Mitis Salivarius Bacitracin (MSB) agar. In addition we took a 25 cm sterile filter paper disk and added 200 ul of either whole saliva, the saliva containing the lysine or the arginine variant of lactoferrin, allowed this saliva to dry onto the filter paper for 1 hour and then placed the filter paper containing the added protein over the center of the confluent culture of S. mutans on the MSB agar. […] This assay was used to screen for potential antimicrobial activity.
The disk diffusion assay allows for specific proteins to be added to a filter paper disk whereby the protein can then diffuse into the agar to determine antimicrobial activity. The following peptides were added to the disk; R=arginine form of Lf (FIG. 1(a)). K=lysine form of Lf (FIG. 1(a). PBS=phosphate buffered saline which is used as the control solution and to which is added either the R form or K form of Lf. In FIG. 1 below we added R form, or the K form at a concentration of 1 ug/ml to 200 ul of PBS and then added that to the surface of a 25 cm filter paper strip and allowed the strip to dry for 1 hour. We then streaked a culture of S. mutans to confluence onto a plate of trypicase soy agar containing 20% sucrose and then placed the dried disk over the center of the plate. The cultures were allowed to grow in an incubator set at 37° C. and then evaluated either at 24 or 48 hours after inoculation. […] No zone was seen on disk R/PBS or R/Saliva, where the arginine variant was substituted for the lysine variant (FIG. 3). The R and K Form of LF peptide was added at a concentration of about 15 ug/ml.

S. mutans = details: literature (Gibbons and Hay 1989; Shimotoyodeme et al 2006), cited from earlier work
bacterial plaque = details: in vitro and in vivo; cited from earlier work
Streptococcus mutans [2] = experiment: killing of Streptococcus mutans by synthetic lactoferrin peptide; type: cell-based

## Penicillin
Oral bacteria
  concentration effective against oral bacteria: 1 µg/mL
Bacteria adhering to SHA
  adherence of bacteria to treated SHA: no effect

## ST6: statherin peptide, a 6 mer (DSSEEK; ends and bridges not checked; UniProt P02808 20-25, looked up, fragment)
Streptococcus mutans [1]
  antibacterial activity (zone of inhibition) against S. mutans: do not have any antimicrobial activity
Streptococcus mutans [1]; listed as Statherin 6 mer
  antibacterial activity (zone of inhibition) against S. mutans: no zone of inhibition
S. mutans
  S. mutans attachment / binding to the tooth surface: also has this capacity

## [H]/N=C(\N/C(=N/[H])NCCCCCCNC(=N)NC(=N)Nc1ccc(Cl)cc1)Nc1ccc(Cl)cc1 [chlorhexidine]
Bacterial plaque
  bacterial plaque attachment to teeth: reduce bacterial plaque attachment to teeth

## LF “K”: the 11 mer of lactoferrin with lysine (K) in amino acid position 29 (FQWQRNMRKVR; Active form of synthetic peptide LF11 based on human lactoferrin peptide)
Streptococcus mutans [2]
  killing of Streptococcus mutans: kills Streptococcus mutans
Streptococcus mutans [1]; FIG. 3, peptide in PBS dried on filter paper disk, 37° C., 24 or 48 hours, listed as K
  zone of inhibition of S. mutans growth around disk: zone of inhibition
Streptococcus mutans [1]; FIG. 3, peptide in PBS dried on filter paper disk, 37° C., 24 or 48 hours, listed as lysine variant of Lactoferrin
  zone of inhibition of S. mutans growth around disk: clear zone
Streptococcus mutans [1]
  antibacterial activity (zone of inhibition) against S. mutans: inhibits the growth of S. mutans
Streptococcus mutans [1]; peptide suspended in normal saliva, dried on filter paper disk
  zone of inhibition of S. mutans growth around disk: zone of inhibition

## STAT-LF 6: fusion protein: lactoferrin 11 mer (LF) fused to the Statherin 6 mer (DDDEEKFQWQRNMRKVR; Synthetic fusion peptide STAT-LF6)
Streptococcus mutans [1]; listed as LF and the Statherin 6 mer
  antibacterial activity (zone of inhibition) against S. mutans: most active fusion peptide
Streptococcus mutans [1]; listed as LF fused to the Statherin 6
  antibacterial activity (zone of inhibition) against S. mutans: retains the activity of the Lactoferrin 11 mer
Streptococcus mutans [1]; listed as LF fused to the Statherin 6 mer
  antibacterial activity (zone of inhibition) against S. mutans: retains the activity of the Lactoferrin 11 mer

## Statherin: small salivary tyrosine-rich phosphoprotein containing 43 amino acids (DSSEEKFLRRIGRFGYGYGPYQPVPEQPLYPQPYQPQYQQYTF; also: phosphoprotein, sites not given here; UniProt P02808 20-62, looked up)
S. mutans
  S. mutans attachment / binding to the tooth surface: reduce S. mutans binding to the tooth surface
S. mutans; listed as statherin
  S. mutans attachment / binding to the tooth surface: inhibit S. mutans attachment
